In assay [1] the target is DgSTING. The assay can be described thus: EMSA titration with […]-labeled ligand. It is filed as binding, Diaphanoeca grandis.
Assay [2] has as its target SdSTING. The experiment in a line: EMSA titration with […]-labeled ligand. It is filed as binding, Stephanoeca diplocostata. A general note: A gel shift assay detects complexes by their altered migration in electrophoresis.

The record followed here is article doi:10.1101/2025.09.04.674280 (bioRxiv, 2025).

What is called Kd is the constant that tells how readily two partners part at equilibrium. Low values mean higher affinity, high ones lower affinity.

Turning to `Nc1nc2c(ncn2[C@@H]2O[C@@H]3COP(=O)(O)O[C@H]4[C@@H](O)[C@H](n5cnc6c(=O)[nH]c(N)nc65)O[C@@H]4COP(=O)(O)O[C@H]3[C@H]2O)c(=O)[nH]1` [3′3′-c-di-GMP], the values for the dissociation constant (Kd) in assay [1] and in assay [2] were 590 nM and 1750 nM, respectively.
